Columns and labels:
[1] = test system: TIM3 and PD-1; assay: TIM3+/PD-1+ double-positive murine CD8+ T-cells, Example 7; assay type: cell-based, C57BL/6 mice; details: for effect on PS-stimulated TIM3+/PD-1+ double-positive CD8+ T-cells: 0.1 mM PS; for average reduction in TIM3+/PD-1+ double-positive CD8+ T-cells vs 0.1 mM PS treated cells / average reduction in TIM3+/PD-1+ double-positive CD8+ T-cells vs negative control: absence of PS, dose-independent
Source text: In this study, the effects of increasing doses of compound B and compound C on proliferation (CFSE staining), activation (Granzyme B and IFN-γ), and checkpoint modulation (PD1 and TIM3) of murine CD8+ T-cells in the presence and absence of phosphatidylserine (PS) were explored.
Preparation of test materials: 30:70 PS:DMPC liposomes were synthesized in PBS. […] Compound C was first dissolved in a small volume of DMSO before diluting to the final desired concentration.
Tissue culture and dosing: Splenocytes of C57BL/6 mice were stained with CFSE and prepared, cultured, and dosed. Cells were seeded at 4×10^5 cells/well.
Controls: Two controls were used. A negative control dosed with 10 ng/ml IL-2 was used, and a positive control dosed with 20 μg/ml ConA and 10 ng/ml IL-2 was used.
Treatment: After ConA stimulation (10 μg/ml), cells were dosed with log 3 dilution of compound B or compound C to cover a range from 1×10^−3 to 30 mM in duplicates with or without 0.1 mM PS:DMPC liposomes. All wells were dosed with 10 ng/ml of IL-2.
Flow cytometer: Flow cytometer analysis was performed to assess cell proliferation by CFSE, activation by double staining for Granzyme B (GzmB) and IFN-γ, checkpoint modulation by double staining for PD-1 and TIM3.
Exposure-response analysis: Change from baseline was calculated for each marker as follows:
Concentration versus change was fitted to an appropriate three-, four- or five-parameter log-logistic model using “dre” package in “R.”
The fold change from baseline of TIM3+/PD-1+ double-positive CD8+ T-cells as a function of increasing doses of compound B was calculated using equation 1, where Responsecontrol was TIM3+/PD-1+ double-positive CD8+ T-cells in cells treated with IL-2 alone and Responsetreatment was TIM3+/PD-1+ double-positive CD8+ T-cells at each dose of compound B. The baseline PS response was calculated using the same equation with Responsetreatment as the TIM3+/PD-1+ double-positive CD8+ T-cells treated with 0.1 mM PS.

[2] = test system: B16F10 melanoma cells; assay: Dose-dependent tumor regression in established B16F10 tumors (Example 15); assay type: in vivo, C57BL6 mice
Procedure: C57BL6 mice received 10^5 B16F10 melanoma cells via SC injection at day 0. Tumor growth was monitored until tumor size reached 200 to 300 mm^3, at which time the mouse was randomized into one of the treatment groups or the control group. Mice were dosed orally until the end of the study.

[3] = test system: B16F10 melanoma cells; assay: Lung metastasis and survival after IV B16F10 melanoma cells (Example 16); assay type: in vivo, C57BL6 mice; details: 4 mg/mouse orally daily for two weeks
Procedure: C57BL6 mice received 10^5 B16F10 melanoma cells via IV injection at day 0. At day 7, mice were randomized into one of two groups (n=6 per group): an untreated group and a group treated orally with Compound B at 4 mg/mouse daily for two weeks.
At the end of the first week of treatment (14 days after tumor injection), three mice from each group were euthanized, and lung metastasis was counted (FIG. 11A). By the end of the second week of treatment (21 days after tumor injection), two out of the three remaining control mice had died. The remaining control mouse and the three remaining Compound B-treated mice were euthanized, and lung metastasis assessed (FIG. 111B).

[4] = test system: melanoma cells; assay: Tumor growth inhibition and overall survival, two doses of Compound B (Example 14); assay type: in vivo, mice
Procedure: This study was designed to evaluate the effects of two different doses of Compound B on tumor growth and the overall survival of animals implanted SC with 10^5 melanoma cells. The study was carried out in accordance with the study described in Example 13, except that mice received either placebo, 0.4 mg/mouse PO QD of Compound B for seven days starting at day 7 after tumor implantation, or 4 mg/mouse PO QD of Compound B for seven days starting at day 7 after tumor implantation.

[5] = test system: B16F10 melanoma cells; assay: Tumor growth inhibition and overall survival, SC B16F10 melanoma (Example 13); assay type: in vivo, mice; details: Compound B 4 mg/mouse PO QD x7, Compound C 2.5 mg/mouse IV QD; for animals showing any tumor growth: by day 14; for animals with measurable tumors: by day 16; for tumor volume versus placebo group: duration of the study
Procedure: This study was designed to evaluate the effects of Compound B and Compound C on tumor growth and the overall survival of animals implanted SC with 10^5 melanoma cells. Furthermore, ex vivo analysis of splenocytes at the end of dosing was used to evaluate change in the T-cell population and function. FIG. 8A is a diagram of the study design.
Animals were housed four per cage and had access to food and water ad libitum. Compound B was dissolved in sterile PBS, and pH was adjusted to approximately 7.5. Compound C was first dissolved in DMSO before diluting in sterile PBS. Sterile PBS was used as a control. Compound B was dosed at 4 mg/mouse PO QD. This dose was expected to result in an exposure equivalent to a 1 mg/mouse IV dose. Compound C was dosed at 2.5 mg/mouse IV.
B16F10 melanoma cells were grown in RPMI 1640 media supplemented with 10% FBS and antibiotics (penicillin/streptomycin) using T75 flasks. When cells reached 70-80% confluency, they were treated with 3 ml of 0.25% trypsin/EDTA. Detached cells were harvested. A single-cell suspension was prepared in PBS. A dorsal SC injection of 10^5 cells in mice marked day 0 of the experiment. Animals were monitored daily, and tumors were measured twice a week.
For tumor growth inhibition, animals were divided into 3 groups. The control group received an IV injection of PBS to match the start time, dosing volume, and dosing frequency of the Compound C treatment group. The treatment group received 100 μl of 4 mg/mouse PO QD of Compound B for 7 days starting at day 7 after tumor implantation, or 2.5 mg/mouse IV QD of Compound C. The endpoint was reached when the tumor reached 1 cm^3. Tumor volume was calculated using the following formula:
Tumor volume=length×width×½ width
The mice were also monitored for survival, and were euthanized when the tumor size reached the predefined endpoint of 1 cm^3.

Row | Compound | effect on PS-stimulated TIM3+/PD-1+ double-positive CD8+ T-cells [1] | average reduction in TIM3+/PD-1+ double-positive CD8+ T-cells vs 0.1 mM PS treated cells [1] | average reduction in TIM3+/PD-1+ double-positive CD8+ T-cells vs negative control [1] | animals did not survive the study [5] | animals survived tumor-free for the duration of the study [5] | animals survived with a tumor (to day 28) [5] | survival [5] [%] | animals showing any tumor growth [5] | animals with measurable tumors [5] | tumor volume versus placebo group [5] | other results
1 | O=C(O)[C@H](O)[C@@H](O)C(=O)OCCCc1ccccc1 [Compound B, (2R,3R)-2,3-dihydroxy-4-oxo-4-(3-phenylpropoxy)butanoic acid] | reverse the stimulatory effects of PS | about ⅔ | about ⅗ | 3/7 | 3/7 | 1/7 | 40 | 3/7 | 3 | statistically lower | day by which all animals died of disease ([2]; 0.1 mg PO, tumors 200 to 300 mm^3 at start): ≤ 20 days; day by which animals died ([2]; 0.4 mg PO): ≤ 30 days; tumor progression versus low-dose group and untreated mice ([2]; 0.4 mg PO): progressed more slowly; tumor growth ([2]; 1 mg PO): Tumor growth control was observed early on; tumor growth ([2]; 4 mg PO): Tumor regression was observed; lung metastasis [3]: controlled (e.g., prevented) metastasis; survival compared to untreated mice [3]: improved survival; efficacy of low dose relative to high-dose (4 mg) treatment ([4]; 0.4 mg PO): 70%; survival ([4]; 0.4 mg and 4 mg/mouse PO QD groups): significant increase in survival; mice tumor-free for at least 10 days after treatment stopped ([4]; 0.4 mg/mouse PO QD for seven days): 70%; mice tumor-free for at least 10 days after treatment stopped ([4]; 4 mg/mouse PO QD for seven days): 90%
2 | O=C(O)[C@H](O)[C@@H](O)C(=O)OCCC(c1ccccc1)c1ccccc1 [Compound C, (2R,3R)-4-(3,3-diphenylpropoxy)-2,3-dihydroxy-4-oxobutanoic acid] | can reverse the stimulatory effect of PS | about ⅘ | about ⅔ | 2/8 | 5/8 | 1/8 | 80 | 0/8 | 0 | statistically lower | 

Reference: patent publication US20250177340A1, “Tartaric Acid Analogs and Uses Thereof” (Lapix Therapeutics, Inc., priority 2021, published 2025)
